In patent US20090170846A1, “INHIBITORS OF THE HIV INTEGRASE ENZYME” (Pfizer Inc, priority 2005, published 2009) one finds IC50 and EC50 data, which are given here for twelve compounds.

Structures are written as SMILES. pEC50, pIC50: −log10 of the molar value. Read-outs that look alike come from different tables or passages of the source.

Test [1] has as its target T1, Full-length wild type HIV-1 integrase (SF1) (Human immunodeficiency virus type 1 group M subtype B, UniProt P04585).
T1 construct: made in house; host or cells: E. coli BL21 (DE3)
The test is described as follows: Integrase strand-transfer scintillation proximity assay. In kind it is biochemical. The source says: Integrase Strand-Transfer Scintillation Proximity Assay
Oligonucleotides: Oligonucleotide #1-5′-(biotin)[…]-3′ (SEQ ID NO: 1) and oligonucleotide #2-5′-[…]-3′ (SEQ ID NO: 2), were synthesized by TriLink BioTechnologies, Inc. (San Diego, Calif.). The annealed product represents preprocessed viral ds-DNA derived from the LTR U5 sequence of the viral genome. A ds-DNA control to test for non-specific interactions was made using a 3′ di-deoxy derivative of oligonucleotide #1 annealed to oligonucleotide #2. The CA overhang at the 5′ end of the non-biotinylated strand of the ds-DNA was created artificially by using a complimentary DNA oligonucleotide shortened by 2 base pairs. This configuration eliminates the requisite 3′ processing step of the integrase enzyme prior to the strand-transfer mechanism.
Host ds-DNA was prepared as an unlabeled and [^3H]-thymidine labeled product from annealed oligonucleotide #3-5-[…]-3′ (SEQ ID NO: 3), and oligonucleotide #4-1-5′-[…]-3′ (SEQ ID NO: 4), both synthesized by TriLink BioTechnologies, Inc. (San Diego, Calif.). The annealed product had overhanging 3′ ends of poly(dA). Host DNA was custom radiolabeled by PerkinElmer Life Sciences Inc. (Boston, Mass.) using an enzymatic method with a 12/1 ratio of [methyl-^3H]dTTP/cold ds-DNA to yield 5′-blunt end ds-DNA with a specific activity of >900 Ci/mmol. The radiolabeled product was purified using a NENSORB cartridge and stored in stabilized aqueous solution (PerkinElmer). The final radiolabeled product had six [^3H]-thymidine nucleotides at both 5′ ends of the host ds-DNA.
Reagents: Streptavidin-coated polyvinyltoluene (PVT) SPA beads were purchased from Amersham Biosciences (Piscataway, N.J.). Cesium chloride was purchased from Shelton Scientific, Inc. (Shelton, Conn.). White, polystyrene, flat-bottom, non-binding surface, 96-well plates were purchased from Corning. All other buffer components were purchased from Sigma (St. Louis, Mo.) unless otherwise indicated.
Enzyme Construction Full-length wild type HIV-1 integrase (SF1) sequence (amino acids 1-289) was constructed in a pET24a vector (Novagen, Madison, Wis.). The construct was confirmed through DNA sequencing.
Enzyme Purification Full length wild-type HIV Integrase was expressed in E. coli BL21 (DE3) cells and induced with 1 mM isopropyl-1 thio-β-D-galactopyranoside (IPTG) when cells reached an optical density between 0.8-1.0 at 600 nm. Cells were lysed by microfluidation in 50 mM HEPES pH 7.0, 75 mM NaCl, 5 mM DTT, 1 mM 4-(2-Aminoethyl)benzenesulfonylfluoride HCl (AEBSF). Lysate was then centrifuged 20 minutes at 11 k rpm in GSA rotor in Sorvall RC-5B at 4° C. Supernant was discarded and pellet resuspended in 50 mM HEPES pH 7.0, 750 mM NaCl, 5 mM DTT, 1 mM AEBSF and homogenized in a 40 mL Dounce homogenizer for 20 minutes on ice. Homogenate was then centrifuged 20 minutes at 11 k rpm in SS34 rotor in Sorvall RC-5B at 4° C. Supernant was discarded and pellet resuspended in 50 mM HEPES pH 7.0, 750 mM NaCl, 25 mM CHAPS, 5 mM DTT, 1 mM AEBSF. Preparation was then centrifuged 20 minutes at 11 k rpm in SS34 rotor in Sorvall RC-5B at 4° C.
Supernant was then diluted 1:1 with 50 mM HEPES pH 7.0, 25 mM CHAPS, 1 mM DTT, 1 mM AEBSF and loaded onto a Q-Sepharose column pre-equilibrated with 50 mM HEPES, pH 7.0, 375 mM NaCl, 25 mM CHAPS, 1 mM DTT, 1 mM AEBSF. The flow through peak was collected and NaCl diluted to 0.1 M with 50 mM HEPES pH 7.0, 25 mM CHAPS, 1 mM DTT, 0.5 mM AEBSF and loaded onto a SP-Sepharose column pre-equilibrated with 50 mM HEPES pH 7.0, 100 mM NaCl, 25 mM CHAPS, 1 mM DTT, 0.5 mM AEBSF. After washing the column with the equilibration buffer, a 100 to 400 mM NaCl gradient was run. The eluted integrase was concentrated and run on a S-300 gel diffusion column using 50 mM HEPES pH 7.0, 500 mM NaCl, 25 mM CHAPS, 1 mM DTT, 0.5 mM AEBSF. The peak from this column was concentrated to 0.76 mg/mL and stored at −70° C. and later used for strand transfer assays. […]
On the technique in general: In a scintillation proximity assay essentially only radioactivity close to the scintillant gives light.

The test system of test [2] is RF strain of HIV-1 in CEM-SS cells. The test is described as follows: HIV-1 cell protection assay (XTT dye reduction). In kind it is cell-based. How it is done: HIV-1 Cell Protection Assay
The antiviral activities of potential modulator compounds (test compounds) were determined in HIV-1 cell protection assays using the RF strain of HIV-1, CEM-SS cells, and the XTT dye reduction method (Weislow, O, S. et al., J. Natl. Cancer Inst 81: 577-586 (1989)). Subject cells were infected with HIV-1 RF virus at an moi of to affect about a 90% kill (for example, an moi in the range of from about 0.025 to about 0.819) or mock infected with medium only and added at 2×10^4 cells per well, with the addition of approximately 200 μL of medium, into 96 well plates containing half-log dilutions of test compounds. Six days later, 50 μl of XTT solution (1 mg/ml XTT tetrazolium and 20 nM phenazine methosulfate) were added to the wells and the plates were reincubated for four hours. Viability, as determined by the amount of XTT formazan produced, was quantified spectrophotometrically by absorbance at 450 nm.
Data from CPE assays were expressed as the percent of formazan produced in compound-treated cells compared to formazan produced in wells of uninfected, compound-free cells. The fifty percent effective concentration (EC50) was calculated as the concentration of compound that affected an increase in the percentage of formazan production in infected, compound-treated cells to 50% of that produced by uninfected, compound-free cells. The 50% cytotoxicity concentration (CC50) was calculated as the concentration of compound that decreased the percentage of formazan produced in uninfected, compound-treated cells to 50% of that produced in uninfected, compound-free cells. The therapeutic index was calculated by dividing the cytotoxicity (CC50) by the antiviral activity (EC50).
In general terms: Formazan colour is commonly taken as a measure of viable cells.

[3] abbreviates: integrase strand-transfer SPA, read-out: IC50.
[4] abbreviates: Human immunodeficiency virus 1, CEM-SS, 144 h.
[5] abbreviates: Human immunodeficiency virus 1, 144 h, HIV-1 RF, CEM-SS cells, XTT, six days, read-out: EC50.

Take `CONC(=O)c1cc2c(C(=O)NCC(F)F)cn(Cc3ccc(F)cc3)c2cn1` [Example 48, N3-(2,2-difluoroethyl)-1-(4-fluorobenzyl)-N5-methoxy-1H-pyrrolo[2,3-c]pyridine-3,5-dicarboxamide]: in test [1] (setting [3]), the pIC50 – broadly, −log10 of the IC50, conventionally taken in molar units – is 6.29. The pEC50 (as a rule, the negative decadic logarithm of the EC50, by convention in mol/L) in test [2] (setting [4]) was 7.54.
On to `NC(=O)[C@@H]1CCCN1S(=O)(=O)c1cn(Cc2ccc(F)cc2F)c2cnc(C(=O)NO)cc12` [Example 36, 3-{[(2S)-2-(aminocarbonyl)pyrrolidin-1-yl]sulfonyl}-1-(2,4-difluorobenzyl)-N-hydroxy-1H-pyrrolo[2,3-c]pyridine-5-carboxamide], for which the pIC50 in test [1] (setting [3]) is 6.71. Moreover, the pEC50 in test [2] (setting [5]) is 6.47.
Consider `CN(O)C(=O)c1cc2c(C(=O)NC[C@@H]3CCCO3)cn(Cc3ccc(F)cc3)c2cn1` [Example 43, 1-(4-fluorobenzyl)-N5-hydroxy-N5-methyl-N3-[(2S)-tetrahydrofuran-2-ylmethyl]-1H-pyrrolo[2,3-c]pyridine-3,5-dicarboxamide], for which the pIC50 in test [1] (setting [3]) is 6.66. In test [2] (setting [4]), this compound gave a pEC50 of 7.10.
On the same counts, the results for `CC(C)NC(=O)c1cn(Cc2ccc(F)cc2)c2cnc(C(=O)N(C)O)cc12` [Example 44, 1-(4-fluorobenzyl)-N5-hydroxy-N3-isopropyl-N5-methyl-1H-pyrrolo[2,3-c]pyridine-3,5-dicarboxamide] are 6.69 and 7.15.
The like results for `Cc1c(CNC(=O)c2cn(Cc3ccc(F)cc3)c3cnc(C(=O)N(C)O)cc23)cnn1C` [Example 17, N~3~-[(1,5-dimethyl-1H-pyrazol-4-yl)methyl]-1-(4-fluorobenzyl)-N~5~- hydroxy-N~5~-methyl-1H-pyrrolo[2,3-c]pyridine-3,5-dicarboxamide] were, in that order, 6.77 and 6.96.
`CN(C)S(=O)(=O)c1cn(Cc2ccc(F)cc2)c2cnc(C(=O)NO)cc12` [Example 34]: the pIC50 in test [1] (setting [3]) is 6.87. In test [2] (setting [5]), the negative logarithm of the EC50 (pEC50) is 7.33.
With `CCN1CCCC1CNC(=O)c1cn(Cc2ccc(F)cc2)c2cnc(C(=O)NO)cc12` (stereo not drawn) [Example 31, N~3~-[(1-ethylpyrrolidin-2-yl)methyl]-1-(4-fluorobenzyl)-N~5~- hydroxy-1H-pryyolo[2,3-c]pyridine-3,5-dicarboxamide], the pIC50 in test [1] (setting [3]) was 6.85. Moreover, the pEC50 in test [2] (setting [4]) was 6.70.
In the case of `O=C(NO)c1cc2c(NS(=O)(=O)c3ccc(Cl)s3)cn(Cc3ccc(F)cc3)c2cn1` [Example 21, 3-{[(5-chloro-2-thienyl)sulfonyl]amino}-1-(4-fluorobenzyl)-N-hydroxy-1H-pyrrolo[2,3-c]pyridine-5-carboxamide], the negative logarithm of the IC50 (pIC50) in test [1] (setting [3]) was 6.99. Moreover, the negative logarithm of the EC50 (pEC50) in test [2] (setting [5]) was 7.15.
`CONC(=O)c1cc2c(C(=O)N3CCCC(CO)C3)cn(Cc3ccc(F)cc3)c2cn1` (stereo not drawn) [Example 13, 1-(4-fluorobenzyi)-3-{[3-(hydroxymethyl)piperidin-1-yl]carbonyl}-N-methoxy-1H-pyrrolo[2,3-c]pyridine-5-carboxamide]: the negative logarithm of the IC50 (pIC50) in test [1] (setting [3]) is 6.43. In addition, the pEC50 in test [2] (setting [4]) was 7.18.
On the same counts, the results for `CCN1CCCC1CNC(=O)c1cn(Cc2ccc(F)cc2)c2cnc(C(=O)NOC)cc12` (stereo not drawn) [Example 8, N3~-[(1-ethylpyrrolidin-2-yl)methyl]-1-(4-fluorobenzyl)-N~5~- methoxy-1H-pyrrolo[2,3-c]pyridine-3,5-dicarboxamide] are 5.85 and 6.15.
For `CN(O)C(=O)c1cc2c(S(=O)(=O)N3CCC[C@H]3C(N)=O)cn(Cc3ccc(F)cc3F)c2cn1` [Example 42, 3-{[(2S)-2-(aminocarbonyl)pyrrolidin-1-yl]sulfonyl)-1-(2,4-difluorobenzyl)-N-hydroxy-N-methyl-1H-pyrrolo[2,3-c]pyridine-5-carboxamide], the pIC50 in test [1] was 5.98. Further, the negative logarithm of the EC50 (pEC50) in test [2] (setting [5]) was 5.20.
On the same counts, the results for `O=C(NO)c1cc2c(NS(=O)(=O)c3ccccc3)cn(Cc3ccc(F)cc3)c2cn1` [Example 3, 1-(4-fluorobenzyl)-N-hydroxy-3-[(phenylsulfonyl)amino]-1H-pyrrolo[2,3-c]pyridine-5-carboxamide] are 7.39 and 7.68.
